PMC11597725, “New Asymmetric Gemini Triazole Surfactants with a Polar Triethylene Glycol Fragment: Synthesis and Physico-Chemical Properties” (Molecules, 2024)

Biological target: T1, bovine serum albumin (BSA) (Bos taurus, UniProt P02769)
T1 construct: gene ALB; native serum protein, BSA powder dissolved in buffer; mature form expected
Assay: tryptophan fluorescence quenching, double-log plot
Assay type: binding
Conditions: 25 mM Tris-HCl pH 7.4, 298.15 K, BSA 10 μM, surfactant 0-700 μM
Excerpt: tryptophan fluorescence quenching, double-log plot on bovine serum albumin (BSA)

T1 sequence (P02769 25-607): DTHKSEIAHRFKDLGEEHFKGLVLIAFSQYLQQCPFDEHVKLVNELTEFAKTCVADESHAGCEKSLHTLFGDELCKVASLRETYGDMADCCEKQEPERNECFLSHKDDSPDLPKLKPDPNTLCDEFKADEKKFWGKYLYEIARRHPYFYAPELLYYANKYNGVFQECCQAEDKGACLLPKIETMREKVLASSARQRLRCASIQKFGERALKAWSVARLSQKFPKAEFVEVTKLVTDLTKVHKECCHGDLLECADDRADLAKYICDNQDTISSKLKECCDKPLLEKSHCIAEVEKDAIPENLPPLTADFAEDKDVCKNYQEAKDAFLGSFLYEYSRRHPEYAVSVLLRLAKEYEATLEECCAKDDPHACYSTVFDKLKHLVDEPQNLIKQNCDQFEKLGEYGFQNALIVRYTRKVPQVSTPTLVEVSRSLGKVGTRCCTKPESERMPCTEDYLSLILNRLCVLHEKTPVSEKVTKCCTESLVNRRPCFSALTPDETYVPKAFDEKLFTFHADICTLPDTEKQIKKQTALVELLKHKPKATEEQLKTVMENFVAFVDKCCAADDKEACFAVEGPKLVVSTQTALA

Row | Compound | Kb [M⁻¹]
1 | CCCCn1cc[n+](CCCn2cc[n+](CCCn3cc(COCCOCCOCCOC)nn3)c2)c1 [14a, 1-(3-(4-(2,5,8,11-tetraoxadodecyl)-1H-1,2,3-triazol-1-yl)propyl)-3-(3-(1-butyl-1H-imidazol-3-ium-3-yl)propyl)-1H-imidazol-3-ium dibromide] | 730
2 | CCCCCCCCn1cc[n+](CCCn2cc[n+](CCCn3cc(COCCOCCOCCOC)nn3)c2)c1 [14b, 1-(3-(4-(2,5,8,11-tetraoxadodecyl)-1H-1,2,3-triazol-1-yl)propyl)-3-(3-(1-octyl-1H-imidazol-3-ium-3-yl)propyl)-1H-imidazol-3-ium dibromide] | 20700
3 | CCCCCCCCCCCCCCn1cc[n+](CCC[n+]2ccn(CCCn3cc(COCCOCCOCCOC)nn3)c2)c1 [14c, 1-(3-(4-(2,5,8,11-tetraoxadodecyl)-1H-1,2,3-triazol-1-yl)propyl)-3-(3-(1-tetradecyl-1H-imidazol-3-ium-3-yl)propyl)-1H-imidazol-3-ium dibromide] | 44900
4 | COCCOCCOCCOCc1cn(CCCn2cc[n+](CCC[n+]3ccn(CCCn4cc(COCCOCCOCCOC)nn4)c3)c2)nn1 [14d, 3,3′-(propane-1,3-diyl)bis(1-(3-(4-(2,5,8,11-tetraoxadodecyl)-1H-1,2,3-triazol-1-yl)propyl)-1H-imidazol-3-ium) dibromide] | 34800
5 | CCCCn1cc[n+](CCC[n+]2ccn(CCOCCn3cc(COCCOCCOCCOC)nn3)c2)c1 [15a, 1-(2-(2-(4-(2,5,8,11-tetraoxadodecyl)-1H-1,2,3-triazol-1-yl)ethoxy)ethyl)-3-(3-(1-butyl-1H-imidazol-3-ium-3-yl)propyl)-1H-imidazol-3-ium dibromide] | 790
6 | CCCCCCCCn1cc[n+](CCC[n+]2ccn(CCOCCn3cc(COCCOCCOCCOC)nn3)c2)c1 [15b, 1-(2-(2-(4-(2,5,8,11-tetraoxadodecyl)-1H-1,2,3-triazol-1-yl)ethoxy)ethyl)-3-(3-(1-octyl-1H-imidazol-3-ium-3-yl)propyl)-1H-imidazol-3-ium dibromide] | 10400
7 | CCCCCCCCCCCCCCn1cc[n+](CCC[n+]2ccn(CCOCCn3cc(COCCOCCOCCOC)nn3)c2)c1 [15c, 1-(2-(2-(4-(2,5,8,11-tetraoxadodecyl)-1H-1,2,3-triazol-1-yl)ethoxy)ethyl)-3-(3-(1-tetradecyl-1H-imidazol-3-ium-3-yl)propyl)-1H-imidazol-3-ium dibromide] | 10900
8 | COCCOCCOCCOCc1cn(CCOCCn2cc[n+](CCC[n+]3ccn(CCOCCn4cc(COCCOCCOCCOC)nn4)c3)c2)nn1 [15d, 3,3′-(propane-1,3-diyl)bis(1-(2-(2-(4-(2,5,8,11-tetraoxadodecyl)-1H-1,2,3-triazol-1-yl)ethoxy)ethyl)-1H-imidazol-3-ium) dibromide] | 10000
